# According to patent US20190240296A1, “TREATMENT OF DISEASES MEDIATED BY VASCULAR HYPERPERMEABILITY” (AMPIO PHARMACEUTICALS, INC., priority 2016, published 2019):
# Tested on: acetylated α-tubulin in HREC
# Assay: Immunofluorescence staining for acetylated α-tubulin in HREC
# Type: cell-based, human
# Settings: 3 hours
# Protocol: HREC were grown on glass bottom 24-well tissue culture plates (Cellvis, Mountain View, Calif.) coated with 2% gelatin in EGM-2. The medium was then exchanged with a combination of 500 μL saline, 2× working dilutions of compounds to be tested prepared in saline, or LMWFHSA together with 500 μl EGM-2 and incubated for the indicated times. Following treatment, the cells were fixed using 10% neutral buffered formalin for 10 minutes and permeabilized with 0.1% Triton X-100 in PBS for 5 minutes. 4% goat serum (ThermoFisher Scientific) prepared in PBS was used to block the cells for 1 hour then the cells were exposed to anti-acetylated α-tubulin clone 6-11B-1 antibody (1:1000; Santa Cruz Biotechnology, Santa Cruz, Calif.) in blocking solution overnight at 4° C. Alexa fluor 488 conjugated anti-mouse IgG (1:1000; Invitrogen, Carlsbad, Calif.) was then added for 1 hour followed by DAPI counter staining (300 nM in PBS; ThermoFisher Scientific) for 5 minutes. Randomly selected frames were photographed on an inverted microscope (Zyla sCMOS camera; Andor, South Windsor, Conn. and eclipse Ti; Nikon, Melville, N.Y.) and fluorescent intensity measured using ImageJ software (http://imagej.nih.gov/ij) (Schneider C A, et al. NIH Image to ImageJ: 25 years of image analysis. Nature methods 2012; 9:671-675). For normalization, the number of DAPI staining nuclei was determined for each frame and data presented as median FU/DAPI objects.
Structure (SMILES),"inhibition at 10 µM (Homo sapiens, 10 μM LY294002 with LMWFHSA, four experiments in triplicate, 95% CI 29-19, read-out: reduction of LMWFHSA-induced α-tubulin acetylation (percent inhibition)) [%]","increase of α-tubulin acetylation versus saline-DMSO controls (10 μM SB203580 with LMWFHSA, 95% CI 63-51) [%]","increase of α-tubulin acetylation versus LMWF5A-DMSO treated cells (10 μM SB203580 with LMWFHSA, 95% CI 236-208) [%]"
O=c1cc(N2CCOCC2)oc2c(-c3ccccc3)cccc12 [LY294002],24,,
C[S+]([O-])c1ccc(-c2nc(-c3ccncc3)c(-c3ccc(F)cc3)[nH]2)cc1 (stereo not drawn) [SB203580],,57,222
